Data set [1] has as its target T1, Transient receptor potential cation channel subfamily V member 1 (Homo sapiens, UniProt Q8NER1). Put plainly: Antagonist activity at human TRPV1 expressed in CHOK1 cells assessed as reduction in capsaicin-induced intracellular calcium level preincubated for 6 mins followed by capsaicin addition by Fluo-4 dye based FLIPR assay. The format is cell-based.
Data set [2] addresses T1, Transient receptor potential cation channel subfamily V member 1. As to the kind of experiment: Antagonist activity at human TRPV1 expressed in CHOK1 cells assessed as reduction in NADA-induced intracellular calcium level preincubated with cells followed by NADA addition measured after 5 mins by Fluo-4 dye based FLIPR assay. It counts as cell-based. (In general: A change in cytosolic calcium serves as a functional read-out for many receptors and channels.)

The target is the same in data set [3]. As to the kind of experiment: Antagonist activity at human TRPV1 expressed in CHOK1 cells assessed as reduction in heat-induced intracellular calcium level preincubated with cells for 5 mins followed by incubation under 45 degC by Fluo-4 dye based FLIPR assay. The format is cell-based.
For data set [4] the target is unchanged. As to the kind of experiment: Antagonist activity at human TRPV1 expressed in CHOK1 cells assessed as reduction in low pH-induced receptor activation by measuring decrease in intracellular calcium level preincubated with cells for 5 mins followed by incubation under pH 6 to 6.3 condition by Fluo-4 dye based FLIPR assay. The format is cell-based.
Data set [5] relates to Mus musculus. Put plainly: Anti-hypothermic activity in NMRI mouse assessed as inhibition of capsaicin-induced […] in body temperature at 3 mg/kg, po pretreated for 15 mins followed by capsaicin treatment measured up to 120 mins relative to control. The format is functional.
Data set [6] deals with Mus musculus. As to the kind of experiment: Anti-hypothermic activity in NMRI mouse assessed as inhibition of capsaicin-induced […] in body temperature at 10 mg/kg, po pretreated for 15 mins followed by capsaicin treatment measured up to 120 mins relative to control. It counts as functional.
In data set [7] the test system is Mus musculus. Put plainly: Induction of hyperthermic effect in NMRI mouse assessed as increase in body temperature at 3 mg/kg, po. The format is organism-based. To be noted: in vivo.
The target of data set [8] is T1, Transient receptor potential cation channel subfamily V member 1. Put plainly: Agonist activity at human TRPV1 expressed in CHO cells assessed as intracellular calcium accumulation by Fluo-4 dye based FLIPR assay. The format is cell-based.
The target is the same in data set [9]. As to the kind of experiment: Partial agonist activity at human TRPV1 expressed in CHO cells assessed as intracellular calcium accumulation by Fluo-4 dye based FLIPR assay. The format is cell-based.

The source made the active and inactive calls. The calls are words filed in the database; no cut-off is given here.

T1 sequence (Q8NER1 whole entry): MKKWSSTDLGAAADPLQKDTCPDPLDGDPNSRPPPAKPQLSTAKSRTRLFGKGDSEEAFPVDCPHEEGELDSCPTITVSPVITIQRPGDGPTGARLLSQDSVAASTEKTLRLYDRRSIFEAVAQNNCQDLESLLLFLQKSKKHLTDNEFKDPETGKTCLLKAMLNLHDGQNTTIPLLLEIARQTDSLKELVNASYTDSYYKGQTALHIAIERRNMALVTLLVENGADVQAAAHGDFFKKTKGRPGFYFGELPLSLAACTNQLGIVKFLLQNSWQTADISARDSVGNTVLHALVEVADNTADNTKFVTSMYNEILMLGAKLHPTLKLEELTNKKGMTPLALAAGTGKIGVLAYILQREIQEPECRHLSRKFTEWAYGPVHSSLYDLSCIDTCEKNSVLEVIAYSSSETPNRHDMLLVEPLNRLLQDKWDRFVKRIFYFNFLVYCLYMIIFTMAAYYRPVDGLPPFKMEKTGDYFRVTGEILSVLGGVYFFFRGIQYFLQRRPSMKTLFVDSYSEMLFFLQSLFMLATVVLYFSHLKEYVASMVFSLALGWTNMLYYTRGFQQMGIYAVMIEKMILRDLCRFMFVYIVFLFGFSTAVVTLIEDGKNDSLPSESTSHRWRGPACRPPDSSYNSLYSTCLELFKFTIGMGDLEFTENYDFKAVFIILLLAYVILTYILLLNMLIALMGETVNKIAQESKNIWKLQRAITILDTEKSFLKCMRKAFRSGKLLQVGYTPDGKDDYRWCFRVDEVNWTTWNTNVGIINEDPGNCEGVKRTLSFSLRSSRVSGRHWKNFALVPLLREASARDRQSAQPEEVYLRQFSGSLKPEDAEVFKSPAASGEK

In the case of `CC1CCN(c2nc(C(F)(F)F)ccc2CNC(=O)Cc2cc(Cl)c(N)c(Cl)c2)CC1`, the figures for the Ki in data set [1] (read-out: Ki) and in [2] were 0.0003 µM and 0.0001 to 0.0007 µM, respectively. Besides, the IC50 in [3] is 0.0128 µM; in data set [4], 0.158 µM. Also, in the data set with Mus musculus [5], the inhibition in vivo at 3 mg/kg is 57%. For the same compound, the inhibition in vivo at 10 mg/kg in the data set with Mus musculus [6] stood at 128%. Also, the deltaT in the data set on Mus musculus [7] is over 1 °C.

As to `COc1cc(C(C)C(=O)NCc2ccc(C(F)(F)F)nc2N2CCC(C)CC2)ccc1N` (centres undefined), the outcome in data set [8] was Active.

For the compound `COc1cc(C(C)C(=O)NCc2ccc(C(F)(F)F)nc2N2CCC(C)CC2)cc(OC)c1N` (centres undefined), the Ki in [1] (read-out: Ki) came out at 0.021 µM.

For the compound `CC1CCN(c2nc(C(F)(F)F)ccc2CNC(=O)C(C)c2ccc(NC(=O)c3ccccc3)c(F)c2)CC1` (centres undefined), the Ki in data set [1] (read-out: Ki) is 0.0074 µM.

As to `CC1CCN(c2nc(C(F)(F)F)ccc2CNC(=O)C(C)c2ccc(N)c(F)c2)CC1` (centres undefined), in data set [8], the result was Active.

On to `CC1CCN(c2nc(C(F)(F)F)ccc2CNC(=O)C(C)c2cc(Cl)c(N)c(Cl)c2)CC1` (centres undefined), for which the Ki in [1] (read-out: Ki) was found to be 0.0024 µM.

Consider `CC1CCN(c2nc(C(F)(F)F)ccc2CNC(=O)C(C)c2ccc(NC(=O)C(C)(C)C)c(F)c2)CC1` (centres undefined), for which the Ki in data set [1] (read-out: Ki) came out at 0.0519 µM.

Turning to `COc1cc(C(C)C(=O)NCc2ccc(C(F)(F)F)nc2N2CCC(C)CC2)cc(F)c1N` (centres undefined), the result in data set [9] was Active.

On to `CC1CCN(c2nc(C(F)(F)F)ccc2CNC(=O)C(C)c2ccc(NC(=O)C(C)C)c(F)c2)CC1` (centres undefined), for which the Ki in data set [1] (read-out: Ki) was 0.0264 µM.

Regarding `CC1CCN(c2nc(C(F)(F)F)ccc2CNC(=O)C(C)c2ccc(NC(=O)C3CC3)c(F)c2)CC1` (centres undefined), the Ki in [1] (read-out: Ki) was 0.02 µM.

With `CC1CCN(c2nc(C(F)(F)F)ccc2CNC(=O)C(C)c2ccc(Nc3ccccn3)cc2)CC1` (centres undefined), the result in [8] was Active.

In the case of `CC1CCN(c2nc(C(F)(F)F)ccc2CNC(=O)C(C)c2ccc(Nc3ccc(Cl)cc3)cc2)CC1` (centres undefined), the Ki in data set [1] (read-out: Ki) turned out to be 0.0665 µM.

In the case of `CC1CCN(c2nc(C(F)(F)F)ccc2CNC(=O)C(C)c2ccc(Nc3ccc(F)cc3)cc2)CC1` (centres undefined), in data set [1], the Ki entry is on record as “Not Active”.

Turning to `COc1ccc(Nc2ccc(C(C)C(=O)NCc3ccc(C(F)(F)F)nc3N3CCC(C)CC3)cc2)cc1` (centres undefined), the result in data set [9] was Active.

As to `CC1CCN(c2nc(C(F)(F)F)ccc2CNC(=O)C(C)c2ccc(N)c(N)c2)CC1` (centres undefined), the outcome in data set [8] was Active.

For the compound `Cc1cc(C(C)C(=O)NCc2ccc(C(F)(F)F)nc2N2CCC(C)CC2)ccc1N` (centres undefined), the outcome in [8] was Active.

As for `CC1CCN(c2nc(C(F)(F)F)ccc2CNC(=O)C(C)c2ccc(Nc3ccccc3)cc2)CC1` (centres undefined), the outcome in [8] was Active.

Turning to `CC1CCN(c2nc(C(F)(F)F)ccc2CNC(=O)C(C)c2cc(O)c(N)c(F)c2)CC1` (centres undefined), in data set [1] (read-out: Ki), the Ki amounted to 0.0053 µM.

For orientation: Ki means the equilibrium dissociation constant of an inhibitor or competing ligand from its target. By IC50 is commonly meant the concentration needed to halve the response being measured. The term inhibition in vivo denotes the drop in the measured response relative to a control, in per cent.
